In PubChem BioAssay AID463206 (Broad Institute, 2010):
Active and inactive are the calls of the source.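 How the source made its calls: active means caspase luminescence falls with dose and the half-maximal concentration AC50 from the fitted curve is at or below a set limit; inconclusive means flat fit at 30 to 70% signal loss, or invalid fit; inactive means AC50 above the limit, or signal rises instead.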

System: INS-1E cytokine-induced caspase-3/7, Caspase-Glo luminescence, 48 h
Test: suppression of cytokine-driven beta-cell apoptosis – INS-1E rat cells, luminescence, orthogonal assay for beta-cell apoptosis protection project, dose response (AID 463206)

SMILES	AC50
COc1ccc(CNCCc2c(C)[nH]c3ccc(OC(F)(F)F)cc23)c(OC)c1	> 26 µM (inactive)
O=C(CC1C(=O)NCCN1Cc1ccc(-c2ccccc2)cc1)NC1CCC1 (stereo not drawn)	> 26 µM (inactive)
COc1ccc(-c2ccnc(SCC(=O)N3CCN(c4ccccc4)CC3)n2)cc1	> 26 µM (inactive)
CCCCCCCCn1c2c(c(=N)c3c1CCC3)CCCC2	> 26 µM (inactive)
C/C(=N\NC(=O)c1ccc(C)cc1)c1c(C)[nH]n(-c2ccccc2)c1=O	> 26 µM (inactive)
Nc1ccc(Br)cc1-c1nc2ccccc2[nH]c1=O	> 26 µM (inactive)
CCOC(=O)c1ccc(NC(=O)NCc2cccnc2)cc1	> 26 µM (inactive)
Cc1ccc(S(=O)(=O)N2CCN(c3ncnc4sccc34)CC2)cc1	> 26 µM (inactive)
CCOC(=O)c1nc(NNC(=O)c2ccc([N+](=O)[O-])cc2)sc1C	> 26 µM (inactive)
OC(CNCCC1C=Nc2ccccc21)Cn1c2ccc(Cl)cc2c2cc(Cl)ccc21 (stereo not drawn)	> 26 µM (inactive)
COc1cc(NC(=O)COc2cc(O)c3c(c2)OC(C)(C)CC3=O)cc(OC)c1OC	> 26 µM (inactive)
Cc1ccc2[nH]c(C(=O)N/N=C/c3ccccc3O)c(C)c2c1	> 26 µM (inactive)
O=C(NCc1cccnc1)/C(=C\c1ccc(-c2ccc(Br)cc2)o1)S(=O)(=O)c1ccccc1	> 26 µM (inactive)
CCCC(=O)NC(c1ccccc1)c1ccc2cccnc2c1O (stereo not drawn)	> 26 µM (inactive)
COc1ccc(Cn2c(-c3ccc(C)cc3)c[n+]3ccccc23)cc1	> 26 µM (inactive)
O=C(Nc1ccc(Cl)cc1)Nc1ccc(Cl)c(Cl)c1	> 26 µM (inactive)
Cc1ccccc1Cn1ccc(=NCc2ccccc2)cc1	> 26 µM (inactive)
O=C(N/N=C\c1c(O)ccc2ccccc12)c1ccc(S(=O)(=O)N2CCCCC2)cc1	> 26 µM (inactive)
CNC[C@H](CC1CCCCC1)NC[C@H](Cc1ccccc1)NCCC12CC3CC(CC(C3)C1)C2	> 26 µM (inactive)
Cc1ccc(S(=O)(=O)N2CCN(c3ncnc4ccccc34)CC2)cc1	> 26 µM (inactive)
CC(NCC(O)COCCC12CC3CC(CC(C3)C1)C2)c1ccccc1 (stereo not drawn)	> 26 µM (inactive)
CCS(=O)(=O)c1ccc(OC)c(N=Nc2ccc(O)c3ncccc23)c1	> 26 µM (inactive)
CCCC1(c2ccccc2)NC(=O)N(CC(=O)Nc2cc(C)ccc2OC)C1=O (stereo not drawn)	> 26 µM (inactive)
COc1ccc(-c2cn(Cc3ccc(C(=O)c4ccccc4)cc3)nn2)cc1	> 26 µM (inactive)

SMILES	AC50
Cc1cc(C(C)(C)CC(C)(C)C)ccc1OCCOCC[N+](C)(C)Cc1ccccc1	> 26 µM (inactive)
O=C(NCc1ccccc1)C1=C[C@@H](c2csc3ccccc23)C[C@@H](OCCCCO)O1	> 26 µM (inactive)
COc1cc(NC2CCCCC2O)c2nc(-c3ccc(Cl)cc3)ccc2c1 (stereo not drawn)	> 26 µM (inactive)
Cc1ccc(NC(=O)c2c(C(F)(F)F)nn(C)c2SCc2cccc(C(F)(F)F)c2)cc1C	> 26 µM (inactive)
COc1ccc(-c2c[n+]3c(n2-c2ccccc2)CCCCC3)cc1	> 26 µM (inactive)
O=C(NNC(=S)Nc1ccc(Cl)c(Cl)c1)c1ccccn1	> 26 µM (inactive)
Cc1[nH]n(-c2ccccc2)c(=O)c1N=Nc1c(O)cc(S(=O)(=O)N(C)C)c2ccccc12	> 26 µM (inactive)
COc1cccc(/C=N/NC(=O)CN2CC(c3ccccc3)CC2=O)c1O (stereo not drawn)	> 26 µM (inactive)
O=C(CN(Cc1ccco1)Cc1ccco1)Nc1cc(S(=O)(=O)N2CCCCC2)ccc1Cl	> 26 µM (inactive)
COc1ccc(Cn2c(SCc3ccccc3C)nc3cc(OC)c(OC)cc3c2=N)cc1	> 26 µM (inactive)
COc1ccc(/C=N/Nc2cc(C)nc(-n3nc(C)cc3C)n2)c(OC)c1	> 26 µM (inactive)
Oc1cccc(C(Nc2nccs2)c2ccc3cccnc3c2O)c1 (stereo not drawn)	> 26 µM (inactive)
COc1cccc(/C=N/NC(=O)CNC(=O)c2cccs2)c1O	> 26 µM (inactive)
O=C(Nc1ccc(OC(F)F)c(Cl)c1)C(c1ccccc1)c1ccccc1	> 26 µM (inactive)
O=C(Nc1ccc(F)cc1)Nc1cc(OCC(F)(F)F)cc(OCC(F)(F)F)c1	> 26 µM (inactive)
COc1ccc(-[n+]2c(-c3ccccc3)cc(-c3ccccc3)cc2-c2ccccc2)cc1	> 26 µM (inactive)
C#CCOCCOCCOCCNc1nc(N2CCN(C(=O)CCCCCCCCCCNC(=O)Cn3cc(CCCCCN)nn3)CC2)nc(N2CCN(C(=O)CCCCCCCCCCNC(=O)[C@H]([C@@H](C)CC)n3cc(CCCCN=C(N)N)nn3)CC2)n1	> 26 µM (inactive)
Cc1ccccc1OC1C(=O)N(Cc2ccc3c(c2)OCO3)C1c1sccc1C (stereo not drawn)	> 26 µM (inactive)
O=C(O)c1ccc(/C=C2\SC(=S)N(Nc3ccccc3)C2=O)cc1	> 26 µM (inactive)
CCOc1ccc(Nc2nc(Cc3nnc(SCC(=O)c4ccc(C)c(C)c4)o3)cs2)cc1	> 26 µM (inactive)
CC1CCN(C(=O)CCNS(=O)(=O)c2ccc(Br)cc2)CC1	> 26 µM (inactive)
Cc1ccc(-c2c[n+]3c(n2-c2ccccc2)CCC3)cc1	> 26 µM (inactive)
COc1cc2ccccc2cc1C(=O)Nc1sc2c(c1C(N)=O)CCN(C(C)C)C2	9.32 µM
CN1/C(=C\C(=O)COC(=O)c2ccc(O)c(O)c2)C(C)(C)c2ccccc21	> 26 µM (inactive)

SMILES	AC50
Cc1ccccc1NC(=S)Nc1cccc2cnccc12	> 26 µM (inactive)
Cc1cc(=O)[nH]c(N/N=C/c2ccccn2)n1	> 26 µM (inactive)
C=CCN(CC=C)Cc1c[nH]c2ccccc12	26.3 µM
CCOc1ccc(C(=O)c2cc([N+](=O)[O-])ccc2N2CCOCC2)cc1	0.83 µM
C=CCc1cccc(/C=N/NC(=O)c2ccc3nc[nH]c3c2)c1O	> 26 µM (inactive)
COc1cc(/C=N/N=C(N)N)ccc1OCc1ccc(Cl)cc1	> 26 µM (inactive)
O=S(=O)([N-]c1nc2ccccc2nc1-[n+]1ccc(Cc2ccccc2)cc1)c1ccc(Br)s1	> 26 µM (inactive)
CC(=O)Nc1ccc(S(=O)(=O)N2c3ccccc3NC(=O)CC2C)c(Cl)c1 (stereo not drawn)	> 26 µM (inactive)
Cc1ccc(NS(=O)(=O)c2cc([N+](=O)[O-])ccc2NNC(=S)Nc2cc(C)ccc2C)c(C)c1	> 26 µM (inactive)
COc1ccc(C(=O)/C(=C\c2ccco2)N2C=CC=CC2=C(C#N)C#N)cc1	> 26 µM (inactive)
O=C(Nc1ccc(OCC(=O)N2CCC(Cc3ccccc3)CC2)cc1)c1ccco1	> 26 µM (inactive)
CCC(/C=C1\Sc2ccc(OC)cc2N1CC)=C\c1sc2ccc(OC)cc2[n+]1CCCS(=O)(=O)[O-]	> 26 µM (inactive)
Cc1cc(C)n(-c2nc(NCCCO)c3c4c(sc3n2)CCCC4)n1	> 26 µM (inactive)
O=S(=O)(C/C(=C/CO)S(=O)(=O)c1ccccc1)c1ccccc1	4.21 µM
O=C(N/N=C/c1ccc([N+](=O)[O-])s1)C(O)c1ccccc1 (stereo not drawn)	> 26 µM (inactive)
CC1(C)CC(N2CCN(Cc3ccccc3)CC2)=CC(=[N+]2CCCCC2)C1	> 26 µM (inactive)
CCCCC(=O)NC(c1ccccc1)c1ccc2cccnc2c1O (stereo not drawn)	> 26 µM (inactive)
COc1ccc(C(=O)N/N=C(\c2ccccc2)c2ccccn2)cc1	> 26 µM (inactive)
COc1cc(SC#N)ccc1N=Cc1c(C)[nH]n(-c2ccc(C)cc2)c1=O	> 26 µM (inactive)
COCCN(C(=O)COC(=O)C1CCC(C(C)(C)C)CC1)c1c(N)n(Cc2ccccc2)c(=O)[nH]c1=O (stereo not drawn)	> 26 µM (inactive)
CCN(CC)CCNC(=O)c1ccc2c(c1NCCO)C(=O)c1ccccc1C2=O	> 26 µM (inactive)
O=S(=O)(/C(=C/c1ccc(C(F)(F)F)cc1)c1nc2ccccc2[nH]1)c1ccccc1	> 26 µM (inactive)
Cc1sc2ncnc(NCC(O)c3ccc([N+](=O)[O-])cc3)c2c1C (stereo not drawn)	> 26 µM (inactive)
O=C(Nc1ccc2nc3n(c(=O)c2c1)CCCCC3)c1c(F)ccc([N+](=O)[O-])c1F	> 26 µM (inactive)

SMILES	AC50
O=[N+]([O-])c1ccc(O)c(/C=N/Nc2nc3ccccc3[nH]2)c1	> 26 µM (inactive)
O=C(Nc1cc(S(=O)(=O)N2CCCCC2)ccc1Cl)c1ccccc1NS(=O)(=O)c1ccc(F)cc1	> 26 µM (inactive)
C/C(=N/NC(=O)CN(c1ccccc1)S(=O)(=O)c1ccccc1)c1ccccc1O	> 26 µM (inactive)
O=C(CN1CCOCC1)N/N=C/c1c(O)ccc2ccccc12	> 26 µM (inactive)
CC1(C)C(C=C(Cl)Cl)C1C(=O)Nc1ccc([N+](=O)[O-])cc1 (stereo not drawn)	> 26 µM (inactive)
Oc1ccc(N=Nc2ccccc2C(F)(F)F)c2cccnc12	> 26 µM (inactive)
Cc1[nH]nc2nc(SCC(=O)NCCC3=CCCCC3)n(-c3ccc(Br)cc3)c(=N)c12	> 26 µM (inactive)
S=C(NCc1ccc(Cl)cc1)NC12CC3CC(CC(C3)C1)C2	> 26 µM (inactive)
CC(C)(C)C(=O)Nc1ccc(C(=O)N/N=C/c2ccccc2OC(=O)c2ccc(Cl)cc2)cc1	> 26 µM (inactive)
Cc1cc(C)c2c(C)[nH]nc2n1	> 26 µM (inactive)
Cc1cc([N+](=O)[O-])nn1Cc1ccc(C(=O)N/N=C/c2ccc(O)cc2O)cc1	> 26 µM (inactive)
N/C(=N\OC(=O)c1cccc(Cn2cc(C(F)(F)F)ccc2=O)c1)c1ccccc1	> 26 µM (inactive)
O=C(NCc1cccnc1)c1ccc([N+](=O)[O-])cc1	> 26 µM (inactive)
CC1Sc2ccc(S(=O)(=O)N3CCC(C(=O)Nc4ccc(Cl)cc4)CC3)cc2NC1=O (stereo not drawn)	> 26 µM (inactive)
CC(C)(C)c1cc(NCCCn2ccnc2)n2ncc(-c3ccccc3)c2n1	> 26 µM (inactive)
Cc1cc(C(=O)c2ccc3ccccc3c2)c(C)o1	> 26 µM (inactive)
CC(NC(=S)NC1CCCCC1)c1ccc(C(C)(C)C)cc1 (stereo not drawn)	> 26 µM (inactive)
Cc1ccc(/C=N/NC(=O)Cc2ccc(Cl)cc2)c(O)c1	> 26 µM (inactive)
COc1ccc(-c2c[n+]3c4n2CCCCC4=C(c2ccc(Br)cc2)C3)cc1	> 26 µM (inactive)
COc1ccc(OCc2n(CC(=O)OC3CC(C)CCC3C(C)C)c3ccccc3[n+]2C)cc1 (stereo not drawn)	> 26 µM (inactive)
Cc1cc(S(=O)(=O)NCc2ccncc2)c(C)cc1Br	> 26 µM (inactive)
